From PMC7827406, “Structure–Activity Relationship (SAR) Study of Spautin-1 to Entail the Discovery of Novel NEK4 Inhibitors” (International Journal of Molecular Sciences, 2021)
Like-named read-outs stand apart in the source and are kept apart here.

What was measured:
Test in all cases: biochemical
Set-up in all cases: Eurofins KinaseProfiler full panel at Km ATP, residual kinase activity (%) relative to DMSO
BrSK1(h) = biological target: T1, BrSK1(h) (Homo sapiens, UniProt Q8TDC3)
T1 sequence (Q8TDC3 1-778): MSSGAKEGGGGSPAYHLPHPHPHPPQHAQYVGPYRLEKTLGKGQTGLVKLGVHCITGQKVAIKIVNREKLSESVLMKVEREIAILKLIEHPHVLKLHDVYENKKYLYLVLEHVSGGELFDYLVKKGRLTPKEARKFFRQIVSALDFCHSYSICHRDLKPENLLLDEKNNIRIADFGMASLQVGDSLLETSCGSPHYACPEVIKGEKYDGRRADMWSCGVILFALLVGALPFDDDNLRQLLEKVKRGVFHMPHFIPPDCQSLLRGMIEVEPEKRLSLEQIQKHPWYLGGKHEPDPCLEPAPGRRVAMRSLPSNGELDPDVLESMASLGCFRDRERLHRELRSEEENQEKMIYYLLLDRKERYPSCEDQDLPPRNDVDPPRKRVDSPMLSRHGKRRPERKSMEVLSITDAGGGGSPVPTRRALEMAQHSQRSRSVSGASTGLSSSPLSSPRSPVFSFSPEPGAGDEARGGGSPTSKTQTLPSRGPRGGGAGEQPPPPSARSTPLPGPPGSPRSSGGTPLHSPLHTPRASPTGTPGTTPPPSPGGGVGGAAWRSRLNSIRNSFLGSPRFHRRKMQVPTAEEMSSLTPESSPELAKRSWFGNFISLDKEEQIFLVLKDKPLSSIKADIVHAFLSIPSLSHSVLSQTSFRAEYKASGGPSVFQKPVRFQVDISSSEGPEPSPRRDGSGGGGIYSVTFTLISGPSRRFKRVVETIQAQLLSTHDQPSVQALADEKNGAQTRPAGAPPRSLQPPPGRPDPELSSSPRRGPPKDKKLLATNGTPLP
Summary of the method: (§1)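 Compounds screened at 10 µM in radiometric kinase activity assays at Km ATP, reported as remaining kinase activity (%). A KINOMEscan competition-binding screen at 10 µM measured DNA-tagged kinase retained on immobilized active-site ligand by qPCR.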

DYRK1B(h) = DYRK1B(h) (Homo sapiens, UniProt Q9Y463)
Sequence of DYRK1B(h) (Q9Y463 whole entry): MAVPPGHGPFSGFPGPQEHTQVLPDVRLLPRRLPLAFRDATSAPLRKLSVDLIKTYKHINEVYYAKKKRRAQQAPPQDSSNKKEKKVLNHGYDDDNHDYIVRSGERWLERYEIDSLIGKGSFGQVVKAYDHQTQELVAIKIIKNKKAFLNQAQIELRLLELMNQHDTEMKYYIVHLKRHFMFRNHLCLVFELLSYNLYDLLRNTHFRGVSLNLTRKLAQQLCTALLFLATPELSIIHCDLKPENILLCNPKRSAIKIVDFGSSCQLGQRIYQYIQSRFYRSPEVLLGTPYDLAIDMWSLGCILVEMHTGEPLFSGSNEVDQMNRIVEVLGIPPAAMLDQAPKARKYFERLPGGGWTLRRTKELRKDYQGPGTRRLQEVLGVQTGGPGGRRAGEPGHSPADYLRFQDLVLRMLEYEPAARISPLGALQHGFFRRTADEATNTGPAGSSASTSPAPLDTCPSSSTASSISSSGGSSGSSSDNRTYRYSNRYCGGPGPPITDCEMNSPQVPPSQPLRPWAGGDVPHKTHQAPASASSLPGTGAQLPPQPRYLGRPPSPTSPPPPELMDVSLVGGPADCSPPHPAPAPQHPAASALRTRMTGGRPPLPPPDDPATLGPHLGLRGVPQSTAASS
Summary of the method: as §1

MLK3(h) = biological target: T2, MLK3(h) (Homo sapiens, UniProt Q16584)
T2 construct: gene MAP3K11
T2 sequence (Q16584 whole entry): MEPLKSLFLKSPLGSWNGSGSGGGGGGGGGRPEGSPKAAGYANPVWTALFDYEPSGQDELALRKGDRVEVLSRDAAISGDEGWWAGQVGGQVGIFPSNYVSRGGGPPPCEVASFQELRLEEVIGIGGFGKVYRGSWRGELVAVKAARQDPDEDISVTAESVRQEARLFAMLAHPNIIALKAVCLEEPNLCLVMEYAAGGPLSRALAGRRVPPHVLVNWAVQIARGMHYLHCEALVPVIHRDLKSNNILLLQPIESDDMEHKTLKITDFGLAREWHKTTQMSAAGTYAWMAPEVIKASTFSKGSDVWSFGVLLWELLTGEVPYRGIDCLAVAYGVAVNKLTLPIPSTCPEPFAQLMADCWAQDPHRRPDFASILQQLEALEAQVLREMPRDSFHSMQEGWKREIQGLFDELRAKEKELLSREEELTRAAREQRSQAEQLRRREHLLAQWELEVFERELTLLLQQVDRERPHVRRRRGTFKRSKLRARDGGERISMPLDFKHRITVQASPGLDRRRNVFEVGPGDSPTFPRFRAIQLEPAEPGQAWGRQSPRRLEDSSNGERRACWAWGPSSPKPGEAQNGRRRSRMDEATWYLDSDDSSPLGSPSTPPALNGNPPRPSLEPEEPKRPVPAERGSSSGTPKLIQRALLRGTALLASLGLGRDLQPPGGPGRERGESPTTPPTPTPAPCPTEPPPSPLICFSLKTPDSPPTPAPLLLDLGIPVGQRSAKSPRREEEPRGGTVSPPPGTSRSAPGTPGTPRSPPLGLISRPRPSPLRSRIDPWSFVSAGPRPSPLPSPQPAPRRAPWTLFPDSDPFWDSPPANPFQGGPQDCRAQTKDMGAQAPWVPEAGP
Summary of the method: as §1

Lck(h) = Lck(h) (Homo sapiens, UniProt P06239)
Sequence of Lck(h) (P06239 whole entry): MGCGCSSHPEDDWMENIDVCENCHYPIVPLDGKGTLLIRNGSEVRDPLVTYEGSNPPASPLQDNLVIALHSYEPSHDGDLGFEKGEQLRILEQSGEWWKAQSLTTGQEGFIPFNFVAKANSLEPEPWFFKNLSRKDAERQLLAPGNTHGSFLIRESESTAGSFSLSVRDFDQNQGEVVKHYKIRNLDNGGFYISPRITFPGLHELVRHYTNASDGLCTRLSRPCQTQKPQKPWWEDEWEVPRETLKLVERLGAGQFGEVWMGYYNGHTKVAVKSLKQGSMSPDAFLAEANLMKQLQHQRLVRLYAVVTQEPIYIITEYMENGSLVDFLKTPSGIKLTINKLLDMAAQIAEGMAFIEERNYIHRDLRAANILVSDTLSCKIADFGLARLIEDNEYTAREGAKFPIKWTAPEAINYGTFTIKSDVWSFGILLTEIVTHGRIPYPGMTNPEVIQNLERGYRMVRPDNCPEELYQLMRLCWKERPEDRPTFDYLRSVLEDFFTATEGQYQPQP
Summary of the method: as §1

PDK1(h) = biological target: T3, PDK1(h) (Homo sapiens, UniProt O15530)
T3 construct: gene PDPK1
T3 sequence (O15530 1-556): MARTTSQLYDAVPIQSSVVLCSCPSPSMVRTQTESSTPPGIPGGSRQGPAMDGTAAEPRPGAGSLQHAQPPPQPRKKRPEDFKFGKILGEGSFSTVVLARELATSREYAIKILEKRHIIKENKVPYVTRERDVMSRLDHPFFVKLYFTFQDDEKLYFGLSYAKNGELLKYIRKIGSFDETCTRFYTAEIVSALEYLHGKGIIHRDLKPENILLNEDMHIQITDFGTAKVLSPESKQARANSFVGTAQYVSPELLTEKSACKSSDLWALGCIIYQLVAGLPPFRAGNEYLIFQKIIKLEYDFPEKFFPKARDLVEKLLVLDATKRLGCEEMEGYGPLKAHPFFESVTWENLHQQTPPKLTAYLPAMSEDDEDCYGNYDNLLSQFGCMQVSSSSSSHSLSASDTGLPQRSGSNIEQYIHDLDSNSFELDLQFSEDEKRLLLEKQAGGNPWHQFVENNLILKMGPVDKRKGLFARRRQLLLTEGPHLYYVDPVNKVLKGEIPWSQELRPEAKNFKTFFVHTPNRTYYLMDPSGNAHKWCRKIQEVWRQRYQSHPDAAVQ
Summary of the method: as §1

RIPK1(h) = biological target: T4, RIPK1(h) (Homo sapiens, UniProt Q13546)
T4 sequence (Q13546 1-671): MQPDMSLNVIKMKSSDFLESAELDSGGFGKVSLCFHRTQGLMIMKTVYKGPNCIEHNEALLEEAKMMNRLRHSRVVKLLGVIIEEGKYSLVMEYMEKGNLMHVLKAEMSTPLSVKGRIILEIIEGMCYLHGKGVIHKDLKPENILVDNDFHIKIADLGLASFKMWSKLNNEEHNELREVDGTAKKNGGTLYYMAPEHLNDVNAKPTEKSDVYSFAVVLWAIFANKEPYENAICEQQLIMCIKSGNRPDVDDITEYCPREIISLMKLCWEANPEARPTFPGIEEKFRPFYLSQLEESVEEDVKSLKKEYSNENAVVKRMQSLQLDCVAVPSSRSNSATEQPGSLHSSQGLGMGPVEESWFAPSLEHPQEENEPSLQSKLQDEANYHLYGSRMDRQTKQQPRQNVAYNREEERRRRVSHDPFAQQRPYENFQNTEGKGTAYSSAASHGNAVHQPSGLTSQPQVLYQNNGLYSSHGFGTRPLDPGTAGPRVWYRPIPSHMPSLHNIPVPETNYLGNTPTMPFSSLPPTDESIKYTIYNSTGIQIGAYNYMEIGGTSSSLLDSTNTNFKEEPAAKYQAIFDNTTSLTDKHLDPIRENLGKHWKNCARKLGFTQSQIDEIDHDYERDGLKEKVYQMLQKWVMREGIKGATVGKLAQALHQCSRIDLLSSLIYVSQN
Summary of the method: as §1

[1] = read-out: Residual activity (%) Spautin-1 5aa
[2] = read-out: Residual activity (%) 5as
[3] = read-out: Residual activity (%) 5at
[4] = read-out: Residual activity (%) 5ay

## Fc1ccc(CNc2ncnc3ccc(F)cc23)cc1 [5aa, 6-Fluoro-N-(4-fluorobenzyl)-4-Quinazolinamine]
BrSK1(h); [1]
  remaining activity at 10 µM: 85%
DYRK1B(h); [1]
  remaining activity at 10 µM: 88%
MLK3(h); [1]
  remaining activity at 10 µM: 99%
Lck(h); [1]
  remaining activity at 10 µM: 90%
PDK1(h); [1]
  remaining activity at 10 µM: 102%
RIPK1(h); [1]
  remaining activity at 10 µM: 86%

## Fc1ccc(CCNc2ncnc3ccc(F)cc23)cc1 [5as, 6-Fluoro-N-[2-(4-Fluorophenyl)Ethyl]-4-Quinazolinamine]
BrSK1(h); [2]
  remaining activity at 10 µM: 89%
DYRK1B(h); [2]
  remaining activity at 10 µM: 82%
MLK3(h); [2]
  remaining activity at 10 µM: 99%
Lck(h); [2]
  remaining activity at 10 µM: 94%
PDK1(h); [2]
  remaining activity at 10 µM: 88%
RIPK1(h); [2]
  remaining activity at 10 µM: 73%

## Fc1ccc2ncnc(NCCc3ccc(Cl)cc3)c2c1 [5at, N-[2-(4-Chlorophenyl)Ethyl]-6-Fluoro-4-Quinazolinamine]
BrSK1(h); [3]
  remaining activity at 10 µM: 112%
DYRK1B(h); [3]
  remaining activity at 10 µM: 92%
MLK3(h); [3]
  remaining activity at 10 µM: 114%
Lck(h); [3]
  remaining activity at 10 µM: 82%
PDK1(h); [3]
  remaining activity at 10 µM: 84%
RIPK1(h); [3]
  remaining activity at 10 µM: 80%

## COc1ccc2ncnc(Nc3cccc(F)c3)c2c1 [5ay, N-(3-Fluorophenyl)-6-Methoxy-4-Quinazolinamine]
BrSK1(h); [4]
  remaining activity at 10 µM: 30%
DYRK1B(h); [4]
  remaining activity at 10 µM: 53%
MLK3(h); [4]
  remaining activity at 10 µM: 97%
Lck(h); [4]
  remaining activity at 10 µM: 78%
PDK1(h); [4]
  remaining activity at 10 µM: 90%
RIPK1(h); [4]
  remaining activity at 10 µM: 78%
